According to patent US20240150715A1 (Sciperio, Inc, priority 2022, published 2024):

Experiments:
Type in all cases: cell-based
[1] = tested on: RBCs differentiated from HSCs; assay: Enucleation, maturation and morphology of manufactured RBCs (DRAQ5-, CD235a+; leukofiltration; Leishman stain); conditions: for concentration of enucleated cells after leukofiltration: FIG. 6B
Excerpt: FIG. 6 illustrates ferric citrate-treated RBCs enucleate at rates similar to transferrin-treated RBCs.

[2] = tested on: differentiating hematopoietic stem cells (HSCs); assay: High-density differentiation of HSCs into RBCs: culture density / proliferation; conditions: ferric citrate compared with transferrin, FIG. 5A
Excerpt: (B) Secretion of cellular waste compounds ammonia and lactate is equivalent between ferric citrate and transferrin, indicating similar metabolic rates. (C) Rates of lytic cell death are similar between cultures treated with ferric citrate and transferrin, as is indicated by the release of lactate dehydrogenase (LDH). (D) Amino acid consumption is similar between the two conditions, as is represented by the consumption of alanine and other amino acids.
The medium formulation has specifically been designed for the efficient, high density, in vitro manufacture of RBCs from HSCs in bioreactors. It is formulated to optimally supply certain growth factors at elevated concentrations for rapid HSC expansion and mediated erythropoiesis using a bioreactor (FIG. 1). The formulation has been determined experimentally using the average depletion rates of various factors by differentiating HSCs in high-density culture (FIG. 2), and can be employed in the production of manufactured RBCs both in static culture (e.g. culture flasks) and in continually agitated suspension culture (e.g. bioreactors).
The present inventors have experimentally determined that a concentration range between 1 μg/mL and 500 μg/mL is effective in driving directed HSC differentiation through the stages of erythropoiesis in a manner that is equivalent to that of holo-transferrin (FIG. 4).

[3] = tested on: differentiating HSCs in high density culture; assay: Analysis of culture medium: metabolic waste, LDH release, amino acid consumption; conditions: ferric citrate compared with transferrin

Compound: transferrin: iron-loaded protein holo-transferrin, traditional iron source in HSC culture media
- concentration of enucleated cells after leukofiltration [1]: 79%

Compound: O=C([O-])CC(O)(CC(=O)[O-])C(=O)[O-].[Fe+3] [ferric citrate, iron (III) citrate]
- effect on HSC density and cumulative population doubling [2]: comparable
- cell morphology ([1]; Leishman stain, ferric citrate compared with transferrin, FIG. 6C): morphologically similar
- concentration of enucleated cells after leukofiltration [1]: 74.8%
- difference in overall enucleation ([1]; ferric citrate versus transferrin, after differentiation in optimized medium, FIG. 6A): ~4%
- secretion of cellular waste compounds ammonia and lactate ([3]; FIG. 5B): equivalent
- amino acid consumption (alanine and other amino acids) ([3]; FIG. 5D): similar
